Experimental data from publication PMC12955902 (Advanced Science, 2025).

Assays:
SaHU = biological target: T1, SaHU (Staphylococcus aureus, UniProt Q99U17); assay: microscale thermophoresis; assay type: binding
T1 sequence (Q99U17 1-90): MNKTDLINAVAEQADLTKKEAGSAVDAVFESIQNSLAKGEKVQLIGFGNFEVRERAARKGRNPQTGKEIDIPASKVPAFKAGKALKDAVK

[1] = biological target: T2, HU protein of M. tuberculosis (Mycobacterium tuberculosis, UniProt P9WMK7)
T2 construct: gene hupB

[2] = biological target: T3, HU protein of S. pyogenes (Streptococcus pyogenes, UniProt Q5XB35); assay: WaterLOGSY NMR; assay type: binding; settings: 10 µM HU, 400 µM compound; 50 mM NaCl, 20 mM Tris, pH 7.4, 5% DMSO, 10% D2O, 298 K
T3 construct: gene hup
T3 sequence (Q5XB35 whole entry): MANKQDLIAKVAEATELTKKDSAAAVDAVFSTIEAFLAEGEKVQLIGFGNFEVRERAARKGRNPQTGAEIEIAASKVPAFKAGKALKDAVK

T2 sequence (P9WMK7 2-216): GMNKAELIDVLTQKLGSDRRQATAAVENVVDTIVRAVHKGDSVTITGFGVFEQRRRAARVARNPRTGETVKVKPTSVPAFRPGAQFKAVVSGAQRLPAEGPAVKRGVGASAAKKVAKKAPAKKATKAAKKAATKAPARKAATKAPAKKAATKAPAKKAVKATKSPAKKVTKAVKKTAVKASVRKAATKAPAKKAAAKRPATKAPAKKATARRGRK

## O=C(/C=C/c1ccccc1)NO [CHA]
SaHU
  Kd: 5.77 ± 0.93 µM

## O=C(/C=C/c1cccc(S(=O)(=O)Nc2ccccc2)c1)NO [Belinostat]
[1]
  WaterLOGSY NMR: including A. baumannii, S. pneumoniae, B. subtilis, M. tuberculosis and S. pyogenes
[2]
  WaterLOGSY NMR: including A. baumannii, S. pneumoniae, B. subtilis, M. tuberculosis and S. pyogenes
SaHU
  Kd: 4.24 ± 0.24 µM
